Assay results from ChEMBL document CHEMBL5030565, “Stapled Peptides Targeting SARS-CoV-2 Spike Protein HR1 Inhibit the Fusion of Virus to Its Cell Receptor” (J Med Chem, 2021).

Legend:
SARS-CoV-2 [1] = assay: Antiviral activity against SARS-CoV-2 infected in Vero E6 cells assessed as reduction in viral replication at 12.5 uM preincubated for 30 mins followed by viral infection measured after 72 hrs by crystal violet staining based plaque assay; format: functional, Severe acute respiratory syndrome coronavirus 2; design: scale not given: the % may be the effect or the level left
SARS-CoV-2 [2] = assay: Antiviral activity against pseudotyped SARS-CoV-2 infected in Huh7 cells expressing hACE2 at 10 uM preincubated for 1 hr followed by cell infection measured after 2 days by bright-Glo luciferase assay; format: functional, Severe acute respiratory syndrome coronavirus 2, Huh-7; details: time 49 hrs
SARS-CoV-2 [3] = assay: Antiviral activity against pseudotyped SARS-CoV-2 infected in Huh7 cells expressing hACE2 preincubated for 1 hr followed by cell infection measured after 2 days by bright-Glo luciferase assay; format: functional, organism-based; details: Severe acute respiratory syndrome coronavirus 2, Huh-7

Row | SMILES | Activity (SARS-CoV-2 [1]) | Activity (SARS-CoV-2 [2]) | EC50 (SARS-CoV-2 [3])
1 | CC[C@H](C)[C@H](NC(=O)CNC(=O)[C@H](CO)NC(=O)[C@@H](NC(=O)[C@H](CC(=O)O)NC(C)=O)[C@@H](C)CC)C(=O)N[C@@H](CC(N)=O)C(=O)N[C@@H](C)C(=O)N[C@@H](CO)C(=O)N[C@H](C(=O)N[C@H](C(=O)N[C@@H](CC(N)=O)C(=O)N[C@H](C(=O)N[C@@H](CCC(N)=O)C(=O)N[C@@H](CCCCN)C(=O)N[C@@H](CCC(=O)O)C(=O)N[C@H](C(=O)N[C@@]1(C)CCC/C=C\CCC[C@@](C)(C(=O)N[C@H](C(=O)N[C@@H](C)C(=O)N[C@@H](CCCCN)C(=O)N[C@@H](CC(N)=O)C(=O)N[C@@H](CC(C)C)C(=O)N[C@@H](CC(N)=O)C(=O)N[C@@H](CCC(=O)O)C(=O)N[C@@H](CO)C(=O)N[C@@H](CC(C)C)C(=O)N[C@H](C(=O)N[C@@H](CC(=O)O)C(=O)N[C@@H](CC(C)C)C(=O)N[C@@H](CCC(N)=O)C(=O)N[C@@H](CCC(=O)O)C(=O)N[C@@H](CC(C)C)C(N)=O)[C@@H](C)CC)C(C)C)NC(=O)[C@H](CC(N)=O)NC(=O)[C@H](CC(C)C)NC(=O)[C@H](CCCNC(=N)N)NC1=O)[C@@H](C)CC)[C@@H](C)CC)C(C)C)C(C)C | 35% | 27.8% | 
2 | CC[C@H](C)[C@H](NC(=O)CNC(=O)[C@H](CO)NC(=O)[C@@H](NC(=O)[C@H](CC(=O)O)NC(C)=O)[C@@H](C)CC)C(=O)N[C@@H](CC(N)=O)C(=O)N[C@@H](C)C(=O)N[C@@H](CO)C(=O)N[C@H](C(=O)N[C@H](C(=O)N[C@@H](CC(N)=O)C(=O)N[C@H](C(=O)N[C@@H](CCC(N)=O)C(=O)N[C@@H](CCCCN)C(=O)N[C@@]1(C)CCC/C=C\CCC[C@@](C)(C(=O)N[C@@H](CC(N)=O)C(=O)N[C@@H](CCC(=O)O)C(=O)N[C@H](C(=O)N[C@@H](C)C(=O)N[C@@H](CCCCN)C(=O)N[C@@H](CC(N)=O)C(=O)N[C@@H](CC(C)C)C(=O)N[C@@H](CC(N)=O)C(=O)N[C@@H](CCC(=O)O)C(=O)N[C@@H](CO)C(=O)N[C@@H](CC(C)C)C(=O)N[C@H](C(=O)N[C@@H](CC(=O)O)C(=O)N[C@@H](CC(C)C)C(=O)N[C@@H](CCC(N)=O)C(=O)N[C@@H](CCC(=O)O)C(=O)N[C@@H](CC(C)C)C(N)=O)[C@@H](C)CC)C(C)C)NC(=O)[C@H](CCCNC(=N)N)NC(=O)[C@H](CC(=O)O)NC(=O)[C@H]([C@@H](C)CC)NC1=O)[C@@H](C)CC)C(C)C)C(C)C | 32% | 39.8% | 
3 | CC[C@H](C)[C@H](NC(=O)CNC(=O)[C@H](CO)NC(=O)[C@@H](NC(=O)[C@H](CC(=O)O)NC(C)=O)[C@@H](C)CC)C(=O)N[C@@H](CC(N)=O)C(=O)N[C@@H](C)C(=O)N[C@@H](CO)C(=O)N[C@H](C(=O)N[C@H](C(=O)N[C@@H](CC(N)=O)C(=O)N[C@H](C(=O)N[C@@]1(C)CCC/C=C\CCC[C@@](C)(C(=O)N[C@@H](CCCNC(=N)N)C(=O)N[C@@H](CC(C)C)C(=O)N[C@@H](CC(N)=O)C(=O)N[C@@H](CCC(=O)O)C(=O)N[C@H](C(=O)N[C@@H](C)C(=O)N[C@@H](CCCCN)C(=O)N[C@@H](CC(N)=O)C(=O)N[C@@H](CC(C)C)C(=O)N[C@@H](CC(N)=O)C(=O)N[C@@H](CCC(=O)O)C(=O)N[C@@H](CO)C(=O)N[C@@H](CC(C)C)C(=O)N[C@H](C(=O)N[C@@H](CC(=O)O)C(=O)N[C@@H](CC(C)C)C(=O)N[C@@H](CCC(N)=O)C(=O)N[C@@H](CCC(=O)O)C(=O)N[C@@H](CC(C)C)C(N)=O)[C@@H](C)CC)C(C)C)NC(=O)[C@H]([C@@H](C)CC)NC(=O)[C@H](CCC(=O)O)NC(=O)[C@H](CCCCN)NC1=O)[C@@H](C)CC)C(C)C)C(C)C | 35% | 47.6% | 
4 | CC[C@H](C)[C@H](NC(=O)CNC(=O)[C@H](CO)NC(=O)[C@@H](NC(=O)[C@H](CC(=O)O)NC(C)=O)[C@@H](C)CC)C(=O)N[C@@H](CC(N)=O)C(=O)N[C@@H](C)C(=O)N[C@@H](CO)C(=O)N[C@H](C(=O)N[C@H](C(=O)N[C@@H](CC(N)=O)C(=O)N[C@H](C(=O)N[C@@H](CCC(N)=O)C(=O)N[C@@H](CCCCN)C(=O)N[C@@H](CCC(=O)O)C(=O)N[C@H](C(=O)N[C@@H](CC(=O)O)C(=O)N[C@@H](CCCNC(=N)N)C(=O)N[C@@]1(C)CCC/C=C\CCC[C@@](C)(C(=O)N[C@@H](CCCCN)C(=O)N[C@@H](CC(N)=O)C(=O)N[C@@H](CC(C)C)C(=O)N[C@@H](CC(N)=O)C(=O)N[C@@H](CCC(=O)O)C(=O)N[C@@H](CO)C(=O)N[C@@H](CC(C)C)C(=O)N[C@H](C(=O)N[C@@H](CC(=O)O)C(=O)N[C@@H](CC(C)C)C(=O)N[C@@H](CCC(N)=O)C(=O)N[C@@H](CCC(=O)O)C(=O)N[C@@H](CC(C)C)C(N)=O)[C@@H](C)CC)NC(=O)[C@H](C(C)C)NC(=O)[C@H](CCC(=O)O)NC(=O)[C@H](CC(N)=O)NC1=O)[C@@H](C)CC)[C@@H](C)CC)C(C)C)C(C)C | 33.5% | 25.1% | 
5 | CC[C@H](C)[C@H](NC(=O)CNC(=O)[C@H](CO)NC(=O)[C@@H](NC(=O)[C@H](CC(=O)O)NC(C)=O)[C@@H](C)CC)C(=O)N[C@@H](CC(N)=O)C(=O)N[C@@H](C)C(=O)N[C@@H](CO)C(=O)N[C@H](C(=O)N[C@H](C(=O)N[C@@H](CC(N)=O)C(=O)N[C@H](C(=O)N[C@@H](CCC(N)=O)C(=O)N[C@@H](CCCCN)C(=O)N[C@@H](CCC(=O)O)C(=O)N[C@H](C(=O)N[C@@H](CC(=O)O)C(=O)N[C@@]1(C)CCC/C=C\CCC[C@@](C)(C(=O)N[C@@H](C)C(=O)N[C@@H](CCCCN)C(=O)N[C@@H](CC(N)=O)C(=O)N[C@@H](CC(C)C)C(=O)N[C@@H](CC(N)=O)C(=O)N[C@@H](CCC(=O)O)C(=O)N[C@@H](CO)C(=O)N[C@@H](CC(C)C)C(=O)N[C@H](C(=O)N[C@@H](CC(=O)O)C(=O)N[C@@H](CC(C)C)C(=O)N[C@@H](CCC(N)=O)C(=O)N[C@@H](CCC(=O)O)C(=O)N[C@@H](CC(C)C)C(N)=O)[C@@H](C)CC)NC(=O)[C@H](CCC(=O)O)NC(=O)[C@H](CC(N)=O)NC(=O)[C@H](CC(C)C)NC1=O)[C@@H](C)CC)[C@@H](C)CC)C(C)C)C(C)C | 41% | 36.8% | 
6 | CC[C@H](C)[C@H](NC(=O)CNC(=O)[C@H](CO)NC(=O)[C@@H](NC(=O)[C@H](CC(=O)O)NC(C)=O)[C@@H](C)CC)C(=O)N[C@@H](CC(N)=O)C(=O)N[C@@H](C)C(=O)N[C@@H](CO)C(=O)N[C@H](C(=O)N[C@H](C(=O)N[C@@H](CC(N)=O)C(=O)N[C@H](C(=O)N[C@@H](CCC(N)=O)C(=O)N[C@@H](CCCCN)C(=O)N[C@@H](CCC(=O)O)C(=O)NC1(C)CCC/C=C\CCCC(C)(C(=O)NC(CCC(=O)O)C(=O)N[C@H](C(=O)N[C@@H](C)C(=O)N[C@@H](CCCCN)C(=O)N[C@@H](CC(N)=O)C(=O)N[C@@H](CC(C)C)C(=O)N[C@@H](CC(N)=O)C(=O)N[C@@H](CCC(=O)O)C(=O)N[C@@H](CO)C(=O)N[C@@H](CC(C)C)C(=O)N[C@H](C(=O)N[C@@H](CC(=O)O)C(=O)N[C@@H](CC(C)C)C(=O)N[C@@H](CCC(N)=O)C(=O)N[C@@H](CCC(=O)O)C(=O)N[C@@H](CC(C)C)C(N)=O)[C@@H](C)CC)C(C)C)NC(=O)[C@H](CC(C)C)NC(=O)[C@H](CCCNC(=N)N)NC(=O)[C@H](CC(=O)O)NC1=O)[C@@H](C)CC)C(C)C)C(C)C (stereo not given in full) | 25% | 50.8% | 14.6 µM
7 | CC[C@H](C)[C@H](NC(=O)CNC(=O)[C@H](CO)NC(=O)[C@@H](NC(=O)[C@H](CC(=O)O)NC(C)=O)[C@@H](C)CC)C(=O)N[C@@H](CC(N)=O)C(=O)N[C@@H](C)C(=O)N[C@@H](CO)C(=O)N[C@H](C(=O)N[C@H](C(=O)N[C@@H](CC(N)=O)C(=O)N[C@H](C(=O)N[C@@H](CCC(N)=O)C(=O)N[C@@]1(C)CCC/N=C\CCC[C@@](C)(C(=O)N[C@@H](CC(C)C)C(=O)N[C@@H](CC(N)=O)C(=O)N[C@@H](CCC(=O)O)C(=O)N[C@H](C(=O)N[C@@H](C)C(=O)N[C@@H](CCCCN)C(=O)N[C@@H](CC(N)=O)C(=O)N[C@@H](CC(C)C)C(=O)N[C@@H](CC(N)=O)C(=O)N[C@@H](CCC(=O)O)C(=O)N[C@@H](CO)C(=O)N[C@@H](CC(C)C)C(=O)N[C@H](C(=O)N[C@@H](CC(=O)O)C(=O)N[C@@H](CC(C)C)C(=O)N[C@@H](CCC(N)=O)C(=O)N[C@@H](CCC(=O)O)C(=O)N[C@@H](CC(C)C)C(N)=O)[C@@H](C)CC)C(C)C)NC(=O)[C@H](CC(=O)O)NC(=O)[C@H]([C@@H](C)CC)NC(=O)[C@H](CCC(=O)O)NC1=O)[C@@H](C)CC)C(C)C)C(C)C | 28.5% | 16.1% | 
